# Results published in patent US6737383B1, “Herbicidal oxadiazolidines” (priority 1999, dated 2004).
# Experiments:
# common ragweed [1] = experiment: Test D common ragweed; type: in vivo, Ambrosia elatior; conditions: Postemergence, 0 to 100 scale
# itchgrass = experiment: Test D itchgrass; type: in vivo, Rottboellia exaltata; conditions: Postemergence, 0 to 100 scale
# surinam grass = experiment: Test D surinam grass; type: in vivo, Brachiaria decumbens; conditions: Postemergence, 0 to 100 scale; for Surinam grass plant response rating: 0 no injury, 100 complete control
# barnyardgrass = experiment: Test A barnyardgrass; type: in vivo, Echinochloa crus-galli; conditions: 0 to 10 scale where 0 is no effect and 10 is complete control
# Procedure, shortened: (§1)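 Injury scored visually after about eleven greenhouse days against untreated plants, 0 = no effect, 10 = complete control. Compounds, formulated in surfactant-containing non-phytotoxic solvent, were applied as preemergence soil drench to sandy loam plantings and as postemergence runoff spray at the 1–2 leaf stage.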
# morningglory = experiment: Test A morningglory; type: in vivo, Ipomoea spp.; conditions: 0 to 10 scale where 0 is no effect and 10 is complete control
# Procedure, shortened: as §1
# arrowleaf sida = experiment: Test C postemergence arrowleaf sida; type: in vivo, Sida rhombifolia; conditions: 0 to 100 scale, 0 no effect, 100 complete control
# Procedure, shortened: (§2)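 Soil: sandy loam/potting mix 60:40. Treatment: postemergence, solvent + surfactant formulation. Readout: visual control score 0–100 vs untreated at ~14–21 days.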
# common ragweed [2] = experiment: Test C postemergence common ragweed; type: in vivo, Ambrosia elatior; conditions: 0 to 100 scale, 0 no effect, 100 complete control
# Procedure, shortened: as §2
# eastern black nightshade = experiment: Test C postemergence eastern black nightshade; type: in vivo, Solanum ptycanthum; conditions: 0 to 100 scale, 0 no effect, 100 complete control
# Procedure, shortened: as §2
# fall panicum = experiment: Test C postemergence fall panicum; type: in vivo, Panicum dichotomiflorum; conditions: 0 to 100 scale, 0 no effect, 100 complete control
# Experimental: (§3) Compounds evaluated in this test were formulated in a non-phytotoxic solvent mixture which included a surfactant and applied to plants that were grown for various periods of time before treatment (postemergence application). A mixture of sandy loam soil and greenhouse potting mix in a 60:40 ratio was used for the postemergence test.
# (§4) Plantings of these crops and weed species were adjusted to produce plants of appropriate size for the postemergence test. All plant species were grown using normal greenhouse practices. Crop and weed species include arrowleaf sida (Sida rhombifolia), barnyardgrass (Echinochloa crus-galli), cocklebur (Xanthium strumarium), common ragweed (Ambrosia elatior), corn (Zea mays), cotton (Gossypium hirsutum), eastern black nightshade (Solanum ptycanthum), fall panicum (Panicum dichotomiflorum), field bindweed (Convolvulus arvensis), giant foxtail (Setaria faberii), hairy beggarticks (Bidens pilosa), ivyleaf morningglory (Ipomoea hederacea), johnsongrass (Sorghum halepense), ladysthumb smartweed (Polygonum persicaria), lambsquarters (Chenopodium album), large crabgrass (Digitaria sanguinalis), purple nutsedge (Cyperus rotundus), redroot pigweed (Amaranthus retroflexus), soybean (Glycine max), surinam grass (Brachiaria decumbens), velvetleaf (Abutilon theophrasti) and wild poinsettia (Euphorbia heterophylla).
# (§5) Treated plants and untreated controls were maintained in a greenhouse for approximately 14, to 21 days, after which all treated plants were compared to untreated controls and visually evaluated. Plant response ratings, summarized in Table C, were based upon a 0 to 100 scale where 0 was no effect and 100 was complete control. A dash response (−) means no test result.
# hairy beggarticks = experiment: Test C postemergence hairy beggarticks; type: in vivo, Bidens pilosa; conditions: 0 to 100 scale, 0 no effect, 100 complete control
# Experimental: as §3, §4, §5
# johnsongrass = experiment: Test C postemergence johnsongrass; type: in vivo, Sorghum halepense; conditions: 0 to 100 scale, 0 no effect, 100 complete control
# Experimental: as §3, §4, §5
# lambsquarters = experiment: Test C postemergence lambsquarters; type: in vivo, Chenopodium album; conditions: 0 to 100 scale, 0 no effect, 100 complete control
# Procedure, shortened: as §2
# redroot pigweed = experiment: Test C postemergence redroot pigweed; type: in vivo, Amaranthus retroflexus; conditions: 0 to 100 scale, 0 no effect, 100 complete control
# Procedure, shortened: as §2
# velvetleaf = experiment: Test C postemergence velvetleaf; type: in vivo, Abutilon theophrasti; conditions: 0 to 100 scale, 0 no effect, 100 complete control
# Procedure, shortened: as §2
# sourgrass = experiment: Test D sourgrass; type: in vivo, Trichachne insularis; conditions: Rate 64 g/ha, Preemergence; 0 to 100 scale, 0 no injury, 100 complete control
# Procedure, shortened: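 Greenhouse pots, seeds in sandy loam; compounds formulated in non-phytotoxic solvent with surfactant; preemergence treatments went on the soil surface within one day of planting. Injury rated visually 14 to 21 days after application on a 0 (none) to 100 (complete control) scale.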
# [3] = Rate 64 g/ha, 0 no injury, 100 complete control
# [4] = Rate 125 g/ha, 0 no injury, 100 complete control
compound,measurement,setting,value
CC(C)N(C(=O)n1oc(=O)n(C2CC2)c1=O)c1ccc(F)cc1F [Compound 299],"Plant response rating, C. ragweed",common ragweed [1]; [3],100
same,"Plant response rating, C. ragweed",common ragweed [1]; [4],50
same,"Plant response rating, C. ragweed",common ragweed [1]; Rate 250 g/ha,100
same,"Plant response rating, C. ragweed",common ragweed [1]; Rate 500 g/ha,100
same,"Plant response rating, Itchgrass",itchgrass; [3],0
same,"Plant response rating, Itchgrass",itchgrass; [4],10
same,"Plant response rating, Itchgrass",itchgrass; Rate 250 g/ha,50
same,"Plant response rating, Itchgrass",itchgrass; Rate 500 g/ha,100
same,Surinam grass plant response rating,surinam grass; Rate 64 g/ha,50
same,Surinam grass plant response rating,surinam grass; Rate 125 g/ha,100
same,Plant response rating Surinam grass,surinam grass; Rate 250 g/ha,100
same,Plant response rating Surinam grass,surinam grass; Rate 500 g/ha,100
CC(C)N(C(=O)n1oc(=O)n(N(C)c2ccccc2)c1=O)c1ccc(F)cc1 [Compound 177],"Plant response rating, Barnyardgrass","barnyardgrass; Postemergence, Rate 1000 g/ha",0
same,"Plant response rating, Barnyardgrass","barnyardgrass; Pre-emergence, Rate 2000 g/ha",9
same,"Plant response rating, Morningglory","morningglory; Postemergence, Rate 1000 g/ha",0
same,"Plant response rating, Morningglory","morningglory; Pre-emergence, Rate 2000 g/ha",0
CC(C)N(C(=O)n1oc(=O)n(C)c1=O)c1ccc(Cl)cc1 [Compound 137],"Plant response rating, Barnyardgrass","barnyardgrass; Postemergence, Rate 1000 g/ha",8
same,"Plant response rating, Barnyardgrass","barnyardgrass; Pre-emergence, Rate 2000 g/ha",10
same,"Plant response rating, Morningglory","morningglory; Postemergence, Rate 1000 g/ha",10
same,"Plant response rating, Morningglory","morningglory; Pre-emergence, Rate 2000 g/ha",3
Cc1ccc(N(C(=O)n2oc(=O)n(C(C)C)c2=O)C(C)C)cc1 [Compound 132],Plant response rating Arrowleaf sida,arrowleaf sida; Rate 140 g/ha,0
same,Plant response rating Arrowleaf sida,arrowleaf sida; Rate 280 g/ha,0
same,Plant response rating Arrowleaf sida,arrowleaf sida; Rate 560 g/ha,10
same,Plant response rating Arrowleaf sida,arrowleaf sida; Rate 1120 g/ha,80
same,Plant response rating Common ragweed,common ragweed [2]; Rate 140 g/ha,0
same,Plant response rating Common ragweed,common ragweed [2]; Rate 280 g/ha,0
same,Plant response rating Common ragweed,common ragweed [2]; Rate 560 g/ha,0
same,Plant response rating Common ragweed,common ragweed [2]; Rate 1120 g/ha,0
same,Plant response rating E. blacknightsh,eastern black nightshade; Rate 140 g/ha,0
same,Plant response rating E. blacknightsh,eastern black nightshade; Rate 280 g/ha,0
same,Plant response rating E. blacknightsh,eastern black nightshade; Rate 560 g/ha,0
same,Plant response rating E. blacknightsh,eastern black nightshade; Rate 1120 g/ha,0
same,Plant response rating Fall panicum,fall panicum; Rate 140 g/ha,0
same,Plant response rating Fall panicum,fall panicum; Rate 280 g/ha,30
same,Plant response rating Fall panicum,fall panicum; Rate 560 g/ha,50
same,Plant response rating Fall panicum,fall panicum; Rate 1120 g/ha,50
same,Plant response rating H. beggarticks,hairy beggarticks; Rate 140 g/ha,0
same,Plant response rating H. beggarticks,hairy beggarticks; Rate 280 g/ha,0
same,Plant response rating Johnsongrass,johnsongrass; Rate 140 g/ha,0
same,Plant response rating Johnsongrass,johnsongrass; Rate 280 g/ha,0
same,Plant response rating Johnsongrass,johnsongrass; Rate 560 g/ha,0
same,Plant response rating Johnsongrass,johnsongrass; Rate 1120 g/ha,60
same,Plant response rating Lambsquarters,lambsquarters; Rate 140 g/ha,0
same,Plant response rating Lambsquarters,lambsquarters; Rate 280 g/ha,0
same,Plant response rating Lambsquarters,lambsquarters; Rate 560 g/ha,0
same,Plant response rating Lambsquarters,lambsquarters; Rate 1120 g/ha,0
same,"Plant response rating, Redroot pigweed",redroot pigweed; Rate 140 g/ha,0
same,"Plant response rating, Redroot pigweed",redroot pigweed; Rate 280 g/ha,10
same,"Plant response rating, Redroot pigweed",redroot pigweed; Rate 1120 g/ha,30
same,"Plant response rating, Velvetleaf",velvetleaf; Rate 140 g/ha,0
same,"Plant response rating, Velvetleaf",velvetleaf; Rate 280 g/ha,0
same,"Plant response rating, Velvetleaf",velvetleaf; Rate 560 g/ha,0
same,"Plant response rating, Velvetleaf",velvetleaf; Rate 1120 g/ha,0
same,"Plant response rating, Sourgrass",sourgrass,100
CC(C)N(C(=O)n1oc(=O)n(C2CCCC(C(F)(F)F)C2)c1=O)c1ccc(F)cc1 (stereo not shown) [Compound 184],"Plant response rating, Barnyardgrass","barnyardgrass; Postemergence, Rate 1000 g/ha",2
same,"Plant response rating, Barnyardgrass","barnyardgrass; Pre-emergence, Rate 2000 g/ha",9
same,"Plant response rating, Morningglory","morningglory; Postemergence, Rate 1000 g/ha",10
same,"Plant response rating, Morningglory","morningglory; Pre-emergence, Rate 2000 g/ha",0
